The target of assay [1] is T1, Transcription regulator protein BACH1 (Homo sapiens) (UniProt O14867).
T1 sequence (whole entry): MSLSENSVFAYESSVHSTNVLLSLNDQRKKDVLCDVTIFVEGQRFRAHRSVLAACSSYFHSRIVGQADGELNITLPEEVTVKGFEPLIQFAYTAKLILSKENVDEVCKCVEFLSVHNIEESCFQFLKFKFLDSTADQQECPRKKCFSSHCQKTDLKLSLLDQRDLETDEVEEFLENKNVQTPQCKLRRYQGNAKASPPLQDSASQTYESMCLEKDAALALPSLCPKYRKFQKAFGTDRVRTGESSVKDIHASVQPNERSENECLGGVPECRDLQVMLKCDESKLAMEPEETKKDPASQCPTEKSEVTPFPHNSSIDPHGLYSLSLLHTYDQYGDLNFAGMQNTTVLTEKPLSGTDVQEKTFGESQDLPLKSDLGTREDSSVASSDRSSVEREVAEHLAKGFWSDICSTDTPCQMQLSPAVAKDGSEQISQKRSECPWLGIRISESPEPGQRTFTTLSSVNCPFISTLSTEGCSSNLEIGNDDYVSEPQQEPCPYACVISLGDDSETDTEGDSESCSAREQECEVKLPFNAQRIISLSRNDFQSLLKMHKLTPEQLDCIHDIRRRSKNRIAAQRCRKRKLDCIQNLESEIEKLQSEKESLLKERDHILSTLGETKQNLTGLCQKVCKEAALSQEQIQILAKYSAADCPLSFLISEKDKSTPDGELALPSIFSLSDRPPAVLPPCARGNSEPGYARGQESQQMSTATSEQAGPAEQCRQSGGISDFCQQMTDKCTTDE
Put plainly: Inhibition of Bach1 in normal human lung fibroblasts assessed as induction of HMOX protein expression at 0.156 uM incubated for 16 to 18 hrs by immunostaining relative to control.

The target in assay [2] is T1, Transcription regulator protein BACH1 (Homo sapiens). Put plainly: Inhibition of Bach1 in normal human lung fibroblasts assessed as induction of HMOX protein expression at 0.039 uM incubated for 16 to 18 hrs by immunostaining relative to control.
For assay [3] the target is unchanged. Put plainly: Inhibition of Bach1 in normal human lung fibroblasts assessed as induction of HMOX protein expression by measuring HMOX positive cells level at 0.156 uM in presence of 3 uM Nrf2 activator DMF incubated for 16 to 18 hrs by immunostaining relative to control DMSO. More on the design: scale not given: the % may be the effect or the level left.
The target is the same in assay [4]. Put plainly: Inhibition of Bach1 in normal human lung fibroblasts assessed as induction of HMOX protein expression by measuring HMOX positive cells level at 0.078 uM in presence of 0.1 uM Nrf2 activator DMF incubated for 16 to 18 hrs by immunostaining relative to control DMSO. More on the design: scale not given: the % may be the effect or the level left.
For assay [5] the target is unchanged. Put plainly: Inhibition of Bach1 in normal human lung fibroblasts assessed as induction of HMOX protein expression by measuring HMOX positive cells level at 0.078 uM in presence of 30 uM Nrf2 activator DMF incubated for 16 to 18 hrs by immunostaining relative to control DMSO. Details: scale not given: the % may be the effect or the level left.
For assay [6] the target is unchanged. Put plainly: Inhibition of Bach1 in normal human lung fibroblasts assessed as induction of HMOX protein expression by measuring HMOX positive cells level at 0.039 uM in presence of 3 uM Nrf2 activator DMF incubated for 16 to 18 hrs by immunostaining relative to control DMSO. More on the design: scale not given: the % may be the effect or the level left.
Assay [7] shares this target. Nature of the assay: Inhibition of Bach1 in normal human lung fibroblasts assessed as induction of HMOX protein expression at 0.019 uM incubated for 16 to 18 hrs by immunostaining relative to control.
The target is the same in assay [8]. Nature of the assay: Inhibition of Bach1 in normal human lung fibroblasts assessed as induction of HMOX protein expression by measuring HMOX positive cells level at 0.019 uM in presence of 0.1 uM Nrf2 activator DMF incubated for 16 to 18 hrs by immunostaining relative to control DMSO. More on the design: scale not given: the % may be the effect or the level left.

For assay [9] the target is unchanged. Nature of the assay: Inhibition of Bach1 in normal human lung fibroblasts assessed as induction of HMOX protein expression at 0.039 uM in presence of 0.3 uM Nrf2 activator DMF incubated for 16 to 18 hrs by immunostaining relative to control.
Assay [10] shares this target. Put plainly: Inhibition of Bach1 in normal human lung fibroblasts assessed as induction of HMOX protein expression by measuring HMOX positive cells level at 0.156 uM in presence of 0.1 uM Nrf2 activator DMF incubated for 16 to 18 hrs by immunostaining relative to control DMSO. Details: scale not given: the % may be the effect or the level left.
Assay [11] shares this target. Nature of the assay: Inhibition of Bach1 in normal human lung fibroblasts assessed as induction of HMOX protein expression at 0.078 uM in presence of 30 uM Nrf2 activator DMF incubated for 16 to 18 hrs by immunostaining relative to control.
Assay [12] has the same target. Nature of the assay: Inhibition of Bach1 in normal human lung fibroblasts assessed as induction of HMOX protein expression at 0.019 uM in presence of 10 uM Nrf2 activator DMF incubated for 16 to 18 hrs by immunostaining relative to control.
The target is the same in assay [13]. Nature of the assay: Inhibition of Bach1 in normal human lung fibroblasts assessed as induction of HMOX protein expression at 0.019 uM in presence of 0.03 uM Nrf2 activator DMF incubated for 16 to 18 hrs by immunostaining relative to control.
Assay [14] shares this target. Nature of the assay: Inhibition of Bach1 in normal human lung fibroblasts assessed as induction of HMOX protein expression by measuring HMOX positive cells level at 0.078 uM in presence of 1 uM Nrf2 activator DMF incubated for 16 to 18 hrs by immunostaining relative to control DMSO. More on the design: scale not given: the % may be the effect or the level left.
Assay [15] has the same target. Put plainly: Inhibition of Bach1 in normal human lung fibroblasts assessed as induction of HMOX protein expression by measuring HMOX positive cells level at 0.156 uM in presence of 0.3 uM Nrf2 activator DMF incubated for 16 to 18 hrs by immunostaining relative to control DMSO. More on the design: scale not given: the % may be the effect or the level left.
For assay [16] the target is unchanged. Put plainly: Inhibition of Bach1 in normal human lung fibroblasts assessed as induction of HMOX protein expression by measuring HMOX positive cells level at 0.156 uM in presence of 1 uM Nrf2 activator DMF incubated for 16 to 18 hrs by immunostaining relative to control DMSO. More on the design: scale not given: the % may be the effect or the level left.
The target is the same in assay [17]. Put plainly: Inhibition of Bach1 in normal human lung fibroblasts assessed as induction of HMOX protein expression at 0.039 uM in presence of 10 uM Nrf2 activator DMF incubated for 16 to 18 hrs by immunostaining relative to control.
For assay [18] the target is unchanged. Put plainly: Inhibition of Bach1 in normal human lung fibroblasts assessed as induction of HMOX protein expression at 0.039 uM in presence of 1 uM Nrf2 activator DMF incubated for 16 to 18 hrs by immunostaining relative to control.
The target is the same in assay [19]. Put plainly: Inhibition of Bach1 in normal human lung fibroblasts assessed as induction of HMOX protein expression by measuring HMOX positive cells level at 0.019 uM incubated for 16 to 18 hrs by immunostaining relative to control DMSO. More on the design: scale not given: the % may be the effect or the level left.
For assay [20] the target is unchanged. Put plainly: Inhibition of Bach1 in normal human lung fibroblasts assessed as induction of HMOX protein expression at 0.156 uM in presence of 0.03 uM Nrf2 activator DMF incubated for 16 to 18 hrs by immunostaining relative to control.

As for `Cn1c(Nc2nc3ccc(C(F)(F)F)cc3s2)nc2cc(C(=O)NCCOCCO)ccc21`, the fold change (FC) in assay [1] was determined as 6.46; in [2], 2.51; in assay [7], 2.08; in [9], 1.81; in assay [11], 4.8; in assay [12] it was 5.12. In addition, the fold change (FC) was 1.31 in assay [13], 5.64 in assay [17], 2.6 in [18] and 5.22 in [20]. In addition, the Activity came out at 99.2% in assay [3]; 44.6% in assay [4]; 91.3% in assay [5]; 78.7% in assay [6]; 4.52% in assay [8]; 88.2% in [10]. Further, the Activity was 84.8% in assay [14], 94.5% in [15], 97.7% in assay [16] and 19.4% in assay [19].

`CN(C)C(=O)CNC(=O)c1ccc2c(c1)nc(Nc1nc3ccc(C(F)(F)F)cc3s1)n2C`: the fold change (FC) in [1] is 2.66; in assay [2], 1.37; in [7] it was 1.29; in assay [9], 1.61; in assay [11], 6.18; in assay [12], 5.75. In addition, the fold change (FC) in [13] came to 1.1; in [17], 5.13; in [18], 2.1; in assay [20], 1.99. For the same compound, the Activity in [3] was determined as 89%; in assay [4], 8.24%; in [5] it was 96.2%; in [6] it was 68%; in assay [8], 2.37%; in assay [10], 33.1%. In addition, the Activity in assay [14] amounted to 37.7%; in assay [15], 50%; in assay [16], 66.7%; in assay [19] it was 3.6%.

Regarding `CNC(=O)c1ccc2c(c1)nc(Nc1nc3ccc(OC(F)(F)F)cc3s1)n2C`, the fold change (FC) in assay [1] was determined as 3.46; in assay [2], 1.09; in assay [7], 0.97.

On to `COCCNC(=O)c1cnc2c(c1)nc(Nc1nc3ccc(OC(F)(F)F)cc3s1)n2C`, for which the fold change (FC) in [1] was 1.96; in assay [2] it was 1.45; in [7], 1.24; in assay [9], 1.59; in assay [11] it was 4.52; in assay [12], 4.94. Moreover, the fold change (FC) in assay [13] was found to be 1.17; in [17] it was 4.86; in assay [18], 1.97; in [20], 1.46. Also, the Activity in assay [3] was determined as 79.6%; in assay [4], 7.05%; in [5] it was 86.8%; in assay [6], 75.8%; in [8], 2.55%; in assay [10], 18.5%. The Activity in assay [14] is 29.4%; in assay [15], 30.1%; in assay [16], 57.7%; in assay [19] it was 2.31%.

For the origin of these results see ChEMBL document CHEMBL4421728, “Bach1 Inhibitors in Combination with Nrf2 Activators and Pharmaceutical Compositions Thereof” (2017).
